Reference: ChEMBL document CHEMBL1144455, “A small molecule-kinase interaction map for clinical kinase inhibitors” (Nat Biotechnol, 2005)

Tests used:
[1] = biological target: Dual specificity protein kinase CLK1 (Homo sapiens, UniProt P49759)
[2] = biological target: Mitogen-activated protein kinase 9 (Homo sapiens, UniProt P45984)
[3] = biological target: Dual specificity protein kinase CLK2 (Homo sapiens, UniProt P49760)
[4] = biological target: Mitogen-activated protein kinase 10 (Homo sapiens, UniProt P53779)
[5] = biological target: Mast/stem cell growth factor receptor Kit (Homo sapiens, UniProt P10721)
[6] = biological target: Cyclin-dependent kinase 2 (Homo sapiens, UniProt P24941)
[7] = biological target: TRAF2 and NCK-interacting protein kinase (Homo sapiens, UniProt Q9UKE5)
Sequence of TRAF2 and NCK-interacting protein kinase (Q9UKE5 whole entry): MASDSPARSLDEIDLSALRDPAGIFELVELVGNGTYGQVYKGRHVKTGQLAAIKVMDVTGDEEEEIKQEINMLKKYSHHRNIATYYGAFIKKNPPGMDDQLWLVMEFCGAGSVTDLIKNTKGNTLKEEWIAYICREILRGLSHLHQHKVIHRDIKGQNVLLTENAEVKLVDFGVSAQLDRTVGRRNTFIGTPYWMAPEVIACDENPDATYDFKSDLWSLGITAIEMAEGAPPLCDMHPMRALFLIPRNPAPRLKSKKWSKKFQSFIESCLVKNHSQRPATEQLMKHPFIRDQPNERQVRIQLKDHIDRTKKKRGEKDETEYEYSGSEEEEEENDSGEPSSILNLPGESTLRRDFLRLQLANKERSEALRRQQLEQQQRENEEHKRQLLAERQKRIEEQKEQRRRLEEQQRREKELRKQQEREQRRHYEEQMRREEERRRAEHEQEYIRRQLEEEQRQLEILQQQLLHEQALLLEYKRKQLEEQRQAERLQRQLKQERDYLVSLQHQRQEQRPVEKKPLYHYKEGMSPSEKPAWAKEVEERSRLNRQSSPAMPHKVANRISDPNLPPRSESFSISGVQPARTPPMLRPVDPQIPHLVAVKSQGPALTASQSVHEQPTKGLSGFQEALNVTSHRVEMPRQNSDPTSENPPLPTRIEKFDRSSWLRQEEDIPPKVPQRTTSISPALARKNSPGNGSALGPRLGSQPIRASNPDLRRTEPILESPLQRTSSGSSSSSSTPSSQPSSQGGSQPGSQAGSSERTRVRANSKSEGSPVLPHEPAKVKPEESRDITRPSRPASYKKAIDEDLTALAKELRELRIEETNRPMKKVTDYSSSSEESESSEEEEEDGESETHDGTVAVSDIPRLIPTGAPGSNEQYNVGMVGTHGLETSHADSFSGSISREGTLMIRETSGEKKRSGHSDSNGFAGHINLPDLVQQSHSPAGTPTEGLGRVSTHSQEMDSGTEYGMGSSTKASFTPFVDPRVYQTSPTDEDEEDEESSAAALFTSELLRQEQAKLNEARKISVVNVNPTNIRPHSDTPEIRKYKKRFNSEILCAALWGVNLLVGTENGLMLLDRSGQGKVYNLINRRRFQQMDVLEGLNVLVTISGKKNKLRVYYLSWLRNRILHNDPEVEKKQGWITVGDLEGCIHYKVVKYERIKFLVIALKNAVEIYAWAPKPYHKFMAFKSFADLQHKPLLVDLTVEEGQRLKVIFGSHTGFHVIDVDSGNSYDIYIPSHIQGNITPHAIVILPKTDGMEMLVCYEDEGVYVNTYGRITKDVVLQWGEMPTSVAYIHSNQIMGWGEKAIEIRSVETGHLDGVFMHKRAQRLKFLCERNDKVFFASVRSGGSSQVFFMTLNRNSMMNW

[8] = biological target: Serine/threonine-protein kinase 38-like (Homo sapiens, UniProt Q9Y2H1)
Sequence of Serine/threonine-protein kinase 38-like (Q9Y2H1 whole entry): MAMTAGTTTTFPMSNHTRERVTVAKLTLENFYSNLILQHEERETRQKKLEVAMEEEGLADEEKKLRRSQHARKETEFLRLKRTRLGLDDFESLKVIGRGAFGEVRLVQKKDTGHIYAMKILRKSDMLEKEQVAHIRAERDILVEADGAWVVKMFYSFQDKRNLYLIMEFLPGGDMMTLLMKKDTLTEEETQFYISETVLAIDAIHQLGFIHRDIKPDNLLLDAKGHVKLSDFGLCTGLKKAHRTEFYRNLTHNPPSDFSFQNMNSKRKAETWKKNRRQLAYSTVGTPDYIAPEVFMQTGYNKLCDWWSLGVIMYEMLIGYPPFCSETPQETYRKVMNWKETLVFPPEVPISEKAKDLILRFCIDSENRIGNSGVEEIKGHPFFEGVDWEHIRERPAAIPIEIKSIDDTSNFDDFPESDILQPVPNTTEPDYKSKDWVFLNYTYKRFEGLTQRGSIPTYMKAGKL

[9] = biological target: Serine/threonine-protein kinase PAK 1 (Homo sapiens, UniProt Q13153)
Sequence of Serine/threonine-protein kinase PAK 1 (Q13153 whole entry): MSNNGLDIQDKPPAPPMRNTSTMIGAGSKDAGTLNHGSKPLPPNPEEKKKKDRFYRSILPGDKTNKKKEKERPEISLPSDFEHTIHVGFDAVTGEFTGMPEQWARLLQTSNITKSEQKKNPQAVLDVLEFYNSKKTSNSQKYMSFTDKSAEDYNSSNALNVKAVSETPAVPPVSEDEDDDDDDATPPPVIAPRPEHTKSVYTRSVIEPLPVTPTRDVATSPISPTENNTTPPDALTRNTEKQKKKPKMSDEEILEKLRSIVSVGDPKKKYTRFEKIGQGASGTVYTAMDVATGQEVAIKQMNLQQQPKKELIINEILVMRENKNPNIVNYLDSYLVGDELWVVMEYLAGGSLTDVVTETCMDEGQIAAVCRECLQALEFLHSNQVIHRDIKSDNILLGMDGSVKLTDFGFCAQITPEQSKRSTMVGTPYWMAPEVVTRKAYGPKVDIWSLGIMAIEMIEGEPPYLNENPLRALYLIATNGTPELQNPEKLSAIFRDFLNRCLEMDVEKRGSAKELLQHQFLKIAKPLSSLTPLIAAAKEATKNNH

[10] = biological target: Serine/threonine-protein kinase PAK 6 (Homo sapiens, UniProt Q9NQU5)
[11] = biological target: Dual specificity protein kinase CLK4 (Homo sapiens, UniProt Q9HAZ1)
Sequence of Dual specificity protein kinase CLK4 (Q9HAZ1 whole entry): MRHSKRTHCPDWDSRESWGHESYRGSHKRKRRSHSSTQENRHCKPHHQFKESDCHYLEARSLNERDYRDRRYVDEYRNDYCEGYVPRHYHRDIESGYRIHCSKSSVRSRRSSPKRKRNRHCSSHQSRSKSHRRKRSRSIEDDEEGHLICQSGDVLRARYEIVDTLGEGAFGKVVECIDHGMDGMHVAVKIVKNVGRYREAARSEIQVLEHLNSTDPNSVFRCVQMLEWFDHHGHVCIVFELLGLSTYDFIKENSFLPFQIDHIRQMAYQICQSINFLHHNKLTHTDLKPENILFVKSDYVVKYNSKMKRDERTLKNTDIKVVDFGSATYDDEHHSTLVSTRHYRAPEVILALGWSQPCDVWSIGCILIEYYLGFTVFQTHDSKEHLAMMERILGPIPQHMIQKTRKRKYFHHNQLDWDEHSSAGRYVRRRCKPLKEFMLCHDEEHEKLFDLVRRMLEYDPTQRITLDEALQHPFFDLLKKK

[12] = biological target: Mitogen-activated protein kinase 8 (Homo sapiens, UniProt P45983)
[13] = biological target: BMP-2-inducible protein kinase (Homo sapiens, UniProt Q9NSY1)
Sequence of BMP-2-inducible protein kinase (Q9NSY1 whole entry): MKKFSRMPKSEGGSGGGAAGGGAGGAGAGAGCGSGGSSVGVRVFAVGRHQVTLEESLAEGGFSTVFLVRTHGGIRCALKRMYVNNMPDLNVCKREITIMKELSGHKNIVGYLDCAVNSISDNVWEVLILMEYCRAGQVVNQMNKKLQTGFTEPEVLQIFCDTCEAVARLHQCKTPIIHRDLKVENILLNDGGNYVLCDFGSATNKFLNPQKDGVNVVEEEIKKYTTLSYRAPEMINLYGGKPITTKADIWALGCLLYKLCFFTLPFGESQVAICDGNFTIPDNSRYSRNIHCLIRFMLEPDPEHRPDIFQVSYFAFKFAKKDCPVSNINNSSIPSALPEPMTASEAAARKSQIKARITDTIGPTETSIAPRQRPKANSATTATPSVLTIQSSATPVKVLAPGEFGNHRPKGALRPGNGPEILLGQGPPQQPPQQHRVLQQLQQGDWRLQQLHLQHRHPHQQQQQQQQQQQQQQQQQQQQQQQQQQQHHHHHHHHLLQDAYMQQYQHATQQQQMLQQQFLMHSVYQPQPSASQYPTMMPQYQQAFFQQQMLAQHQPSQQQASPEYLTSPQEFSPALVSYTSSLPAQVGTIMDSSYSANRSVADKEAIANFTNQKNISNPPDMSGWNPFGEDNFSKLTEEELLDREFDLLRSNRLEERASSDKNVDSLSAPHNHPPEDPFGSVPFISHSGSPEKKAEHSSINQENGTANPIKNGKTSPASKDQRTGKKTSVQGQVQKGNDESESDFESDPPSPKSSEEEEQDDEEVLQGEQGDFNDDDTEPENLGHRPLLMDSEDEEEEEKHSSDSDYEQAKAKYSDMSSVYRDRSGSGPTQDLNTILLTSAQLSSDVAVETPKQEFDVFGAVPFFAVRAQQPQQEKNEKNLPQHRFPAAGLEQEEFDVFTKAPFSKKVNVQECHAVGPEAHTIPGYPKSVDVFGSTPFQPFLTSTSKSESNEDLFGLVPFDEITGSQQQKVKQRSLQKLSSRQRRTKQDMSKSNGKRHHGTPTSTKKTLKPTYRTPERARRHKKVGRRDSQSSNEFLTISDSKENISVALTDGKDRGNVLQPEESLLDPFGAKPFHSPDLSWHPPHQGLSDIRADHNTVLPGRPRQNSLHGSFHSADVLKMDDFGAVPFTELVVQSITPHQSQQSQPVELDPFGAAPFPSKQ

[14] = biological target: Epidermal growth factor receptor (Homo sapiens, UniProt P00533)
Aurora kinase A = biological target: T1, Aurora kinase A (Homo sapiens, UniProt O14965)
T1 sequence (O14965 whole entry): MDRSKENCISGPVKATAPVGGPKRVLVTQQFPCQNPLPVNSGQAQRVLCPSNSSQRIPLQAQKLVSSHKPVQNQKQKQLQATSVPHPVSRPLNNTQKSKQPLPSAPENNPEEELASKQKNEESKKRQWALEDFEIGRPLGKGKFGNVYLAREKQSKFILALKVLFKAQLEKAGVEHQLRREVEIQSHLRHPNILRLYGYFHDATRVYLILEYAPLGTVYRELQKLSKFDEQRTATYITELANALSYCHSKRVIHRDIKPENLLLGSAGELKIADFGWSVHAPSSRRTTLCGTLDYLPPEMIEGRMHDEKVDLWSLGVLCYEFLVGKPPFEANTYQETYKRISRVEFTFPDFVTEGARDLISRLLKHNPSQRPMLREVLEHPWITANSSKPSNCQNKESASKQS

Measured: Kd

Sequence of Mitogen-activated protein kinase 9 (P45984 whole entry): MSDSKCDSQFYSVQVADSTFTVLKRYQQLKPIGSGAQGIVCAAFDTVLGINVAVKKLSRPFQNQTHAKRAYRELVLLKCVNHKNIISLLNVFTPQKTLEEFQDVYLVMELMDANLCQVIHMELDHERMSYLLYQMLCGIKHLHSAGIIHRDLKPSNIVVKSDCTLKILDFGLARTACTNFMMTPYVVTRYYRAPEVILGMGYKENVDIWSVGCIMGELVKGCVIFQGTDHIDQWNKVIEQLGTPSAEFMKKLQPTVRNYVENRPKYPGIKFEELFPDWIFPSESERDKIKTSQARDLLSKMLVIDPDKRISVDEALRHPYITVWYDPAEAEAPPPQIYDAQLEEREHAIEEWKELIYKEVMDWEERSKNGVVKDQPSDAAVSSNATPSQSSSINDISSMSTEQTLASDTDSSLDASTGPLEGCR
Sequence of Dual specificity protein kinase CLK1 (P49759 whole entry): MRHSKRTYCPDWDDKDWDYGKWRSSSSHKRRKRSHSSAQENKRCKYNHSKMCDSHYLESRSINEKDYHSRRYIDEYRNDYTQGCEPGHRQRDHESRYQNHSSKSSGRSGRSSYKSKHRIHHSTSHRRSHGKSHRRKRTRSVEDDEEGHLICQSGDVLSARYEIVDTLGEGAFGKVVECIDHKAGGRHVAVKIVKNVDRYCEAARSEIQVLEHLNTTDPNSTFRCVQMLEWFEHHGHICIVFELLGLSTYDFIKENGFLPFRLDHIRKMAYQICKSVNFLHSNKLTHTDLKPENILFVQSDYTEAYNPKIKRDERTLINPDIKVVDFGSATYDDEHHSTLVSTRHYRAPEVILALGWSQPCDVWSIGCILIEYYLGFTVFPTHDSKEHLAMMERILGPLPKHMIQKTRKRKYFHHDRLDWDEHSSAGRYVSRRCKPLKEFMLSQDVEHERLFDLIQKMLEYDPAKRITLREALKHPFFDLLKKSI

O=c1ncn2nc(Sc3ccc(F)cc3F)ccc2c1-c1c(Cl)cccc1Cl [NEFLAMAPIMOD]
Not Active: all assays above
